Results published in the supplement of paper PMC8149375.

Columns and labels:
Settings in all cases: treatment: drug alone; 5 days
[1] = test system: 786-O; experiment: minimum viability across doses, drug alone, relative to DMSO (fraction); higher = less growth inhibition
Method: (§1)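 Primary HTS: 8 RCC cell lines treated with 8 doses (up to 10 uM) of each library drug alone for 5 days; viability read by CellTiter-Glo and normalised to DMSO. GI50 was fitted with XLfit (4-parameter), AUC is the area under the dose-response curve, and minimum viability is the lowest fraction of DMSO viability across doses.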

[2] = test system: ACHN; experiment: as above
Method: as §1

[3] = test system: UO-31; experiment: as above
Method: as §1

[4] = test system: CAKI-1; experiment: as above
Method: as §1

[5] = test system: 769-P; experiment: as above
Method: as §1

[6] = test system: SN12C; experiment: as above
Method: as §1

[7] = test system: TK-10; experiment: as above
Method: as §1

[8] = test system: A498; experiment: as above
Method: as §1

[9] = test system: 786-O; experiment: GI50, drug alone; higher = less potent
Method: as §1

[10] = test system: ACHN; experiment: GI50, drug alone; higher = less potent
Method: as §1

[11] = test system: UO-31; experiment: GI50, drug alone; higher = less potent
Method: as §1

[12] = test system: CAKI-1; experiment: GI50, drug alone; higher = less potent
Method: as §1

[13] = test system: 769-P; experiment: GI50, drug alone; higher = less potent
Method: as §1

[14] = test system: SN12C; experiment: GI50, drug alone; higher = less potent
Method: as §1

[15] = test system: TK-10; experiment: GI50, drug alone; higher = less potent
Method: as §1

[16] = test system: A498; experiment: GI50, drug alone; higher = less potent
Method: as §1

[17] = test system: 786-O; experiment: AUC of dose-response viability curve, drug alone (arbitrary (AUC of normalised viability)); higher = less growth inhibition
Method: as §1

[18] = test system: ACHN; experiment: as above
Method: as §1

[19] = test system: UO-31; experiment: as above
Method: as §1

[20] = test system: CAKI-1; experiment: as above
Method: as §1

[21] = test system: 769-P; experiment: as above
Method: as §1

[22] = test system: SN12C; experiment: as above
Method: as §1

[23] = test system: TK-10; experiment: as above
Method: as §1

[24] = test system: A498; experiment: as above
Method: as §1

SMILES	minimum viability across doses [1]	minimum viability across doses [2]	minimum viability across doses [3]	minimum viability across doses [4]	minimum viability across doses [5]	minimum viability across doses [6]	minimum viability across doses [7]	minimum viability across doses [8]	GI50, drug alone [9] [nM]	GI50, drug alone [10] [nM]	GI50, drug alone [11] [nM]	GI50, drug alone [12] [nM]	GI50, drug alone [13] [nM]	GI50, drug alone [14] [nM]	GI50, drug alone [15] [nM]	GI50, drug alone [16] [nM]	AUC of dose-response viability curve [17]	AUC of dose-response viability curve [18]	AUC of dose-response viability curve [19]	AUC of dose-response viability curve [20]	AUC of dose-response viability curve [21]	AUC of dose-response viability curve [22]	AUC of dose-response viability curve [23]	AUC of dose-response viability curve [24]
S=C(NCc1ccc2c(c1)OCO2)N1CCN(c2ncnc3c2oc2ccccc23)CC1 [Amuvatinib (MP-470)]	0.104	0.113	0.0651	0.832	0.527	0.0586	0.28	0.103	686	2630	2680	> 10000	> 10000	1560	4830	3140	2.22	2.87	3.73	3.74	3.25	2.63	2.82	3.63
S=C(NCc1ccc2c(c1)OCO2)N1CCN(c2ncnc3c2oc2ccccc23)CC1 [Amuvatinib (MP-470)_R2]	0.0372	0.151	0.0813	0.749	0.578	0.0284	0.198	0.131	8.25	2420	2570	> 10000	> 10000	1560	2270	4190	1.54	2.69	3.43	3.34	3.38	2.51	2.19	3.12
CS(=O)(=O)O.N#CC1(c2ccc(NC(=O)c3cccnc3NCc3ccncc3)cc2)CCCC1 [Apatinib (YN968D1)]	0.648	0.676	0.126	0.666	0.901	0.799	0.739	1.02	> 10000	> 10000	8330	> 10000	> 10000	> 10000	> 10000	> 10000	3.23	3.21	5.2	2.93	3.53	3.39	2.84	4.78
O=C1C(=O)N(Cc2ccc(Cl)c(Cl)c2)c2ccccc21 [Apoptosis Activator 2]	0.00355	0.339	0.818	0.342	0.654	0.193	0.439	0.506	> 10000	6950	> 10000	7680	> 10000	4980	8150	> 10000	1.07	2.87	4.31	3.53	3.51	2.93	2.82	4.06
CCN1CCN(C(=O)Cc2ccc(Nc3ncc(F)c(Nc4ccc(C(=O)Nc5ccccc5Cl)cc4)n3)cc2)CC1 [Aurora A Inhibitor I]	0.0582	0.062	0.327	0.00638	0.0238	0.465	0.481	0.871	234	557	9230	980	2030	5340	4410	> 10000	1.75	2.17	3.82	2.49	2.75	2.95	2.7	4.05
CNC(=O)c1ccccc1Sc1ccc2c(/C=C/c3ccccn3)n[nH]c2c1 [Axitinib]	0.661	0.287	0.672	0.367	0.436	0.375	0.748	0.779	> 10000	4700	> 10000	2870	6970	5600	> 10000	> 10000	3.02	3.13	4.27	2.86	3.08	3.06	3.07	4.06
Cn1c(=O)n(-c2ccc(C(C)(C)C#N)cc2)c2c3cc(-c4cnc5ccccc5c4)ccc3ncc21 [BEZ235 (NVP-BEZ235)]	0.139	0.0714	0.00561	0.0875	0.165	0.189	0.157	0.0718	150	223	152	294	301	297	489	303	1.74	1.86	1.69	1.99	2.02	1.96	2.11	2.03
CCN1CCN(c2ccc(Nc3cc(N(C)C(=O)Nc4c(Cl)c(OC)cc(OC)c4Cl)ncn3)cc2)CC1 [BGJ398 (NVP-BGJ398)]	0.218	0.111	0.401	0.133	0.631	0.385	0.327	0.92	2250	747	7580	519	> 10000	6980	3230	> 10000	2.7	2.28	2.98	2.1	3.22	2.91	2.68	3.84
CC[C@@H]1C(=O)N(C)c2cnc(Nc3ccc(C(=O)N[C@H]4CC[C@H](N5CCN(CC6CC6)CC5)CC4)cc3OC)nc2N1C(C)C [BI6727 (Volasertib)]	0.00304	0.0122	0.012	0.0881	0.0308	0.0643	0.0289	0.0429	12.3	130	58.1	157	126	123	293	2030	0.673	1.87	2.07	2.01	1.66	1.71	1.93	2.78
